Assay results as given in patent US10519211B2, “Compounds as peptidic GLP1/glucagon/GIP receptor agonists” (SANOFI, priority 2016, dated 2019).
Numbered stars: 1 amine (or outer) side, 2 acyl side, 3 side chain; on linkers, the order of the positions; unused ones are H or OH. Square brackets hold non-standard residues; d marks the D form. Side chains are listed from the residue outwards. Peptide text beside a SMILES is read from it. * marks the point of attachment. γGlu = O=C(O)[C@H](CCC(=O)[*:2])N[*:1]; Palmitoyl = CCCCCCCCCCCCCCCC(=O)*; Aib = CC(C)(N)C(=O)O

Columns and labels:
[1] = system: female diet-induced obese (DIO) C57BL/6NHsd mice; experiment: Acute and chronic effects after subcutaneous treatment in female diet-induced obese (DIO) mice; type: in vivo, mouse; details: for Body mass compared to the DIO-Vehicle group / Whole body fat mass compared to the DIO-Vehicle group / Plasma insulin concentrations compared to DIO vehicle / Plasma total cholesterol concentrations compared to DIO vehicle / Liver mass on day 28 compared to DIO animals treated with vehicle / Plasma alanine aminotransferase concentration on day 28 compared to DIO vehicle: 30 μg/kg s.c. twice daily; for Body mass compared to the DIO-Vehicle group / Whole body fat mass compared to the DIO-Vehicle group / Body mass change: 28 days; for Body mass compared to the DIO-Vehicle group / Whole body fat mass compared to the DIO-Vehicle group / Plasma insulin concentrations compared to DIO vehicle / Plasma total cholesterol concentrations compared to DIO vehicle / Liver mass on day 28 compared to DIO animals treated with vehicle / Plasma alanine aminotransferase concentration on day 28 compared to DIO vehicle / 24 hour blood glucose profile following first treatment: in words; for Plasma insulin concentrations compared to DIO vehicle / Plasma total cholesterol concentrations compared to DIO vehicle: day 28; for 24 hour blood glucose profile following first treatment: 30 μg/kg s.c., day 1, fed DIO mice, vs DIO control; for Body mass change / Whole body fat mass change / Terminal liver mass (g) / Terminal plasma alanine aminotransferase (U/L) / Terminal plasma insulin (U/L) / Terminal plasma total cholesterol (mmol/L): Table 11, twice-daily 30 μg/kg s.c.; for Body mass change: mean ± SEM; for Whole body fat mass change: QNMR predose vs day 26, mean ± SEM; for Terminal liver mass (g) / Terminal plasma alanine aminotransferase (U/L) / Terminal plasma insulin (U/L) / Terminal plasma total cholesterol (mmol/L): day 28, mean ± SEM
Protocol: Female C57BL/6NHsd mice were ordered group housed from Envigo RMS Inc., shipped group housed and remained group housed with shipped cage mates in shoebox caging with wood chip bedding until day 38 of the predose phase. At the study start mice were between 25-26 weeks old.
Mice were housed under vivarium conditions that included a 12 h light/dark cycle (light phase 04:00 AM-4:00 PM), room temperatures between 23-26° C. and a relative humidity between 30-70%. All animals had free access to water and a high fat diet (TD97366) for 16 weeks prior to pharmacological intervention (dosing phase). Feed was replaced with fresh feed weekly until and for the last time on day 38 of the predose phase. During the subsequent dosing phase, approximately 50% of the remaining feed were removed, replaced with fresh feed, and pellets were mixed evenly once per week.
On predose day 38, obese DIO mice were assigned to treatment groups (n=8) to match mean body masses between all DIO groups. An age-matched group with ad libitum access to a rodent maintenance diet (Teklad Global Diets Rodent 2014, pelleted) was included in the study as a lean control group. In the predosing phase from day 32 through 38, all study animals were treated with vehicle (Phosphate Buffered Saline, PBS, Gibco, without CaCl2 and MgCl2) once daily (s.c. approximately 0.2 mL/mouse).
On day 37 of the predose phase, the test article was diluted with PBS to a concentration of 100 μg/mL and aliquots of this stock solution were stored at approximately ≤−60° C. Stock aliquots were thawed for weekly use and thereafter stored in a refrigerator at approximately 4° C. The injected test article solution was prepared fresh once on each dosing day by diluting stock solution with PBS to achieve the desired concentration.
Mice were treated twice daily with a s.c. injection of PBS-vehicle or the test article for 28 days. The morning dosing was initiated and completed between 06:00 and 07:30 AM and the afternoon dosing between 2:00 and 3:30 PM. On day 28 of the dosing phase only the morning dose was administered. The applied volume was 5 ml/kg and the dose was adjusted to the most recent body mass recording of each individual.
Animals had unlimited access to water and feed during the experiment. On day 1 of the dosing phase approximately 5 μL of blood were collected via tail clips at hour 0, prior to the first s.c. dose of PBS-vehicle or test-article as well as 1, 2, 3, 4, 6, and 24 hours post-dose. Animals received the second s.c. dose of PBS-vehicle or test-article 8 hours after the first dose. The 24 hour blood collection of the blood glucose profile was performed prior to dosing on day 2. Glucose measurements were performed in whole blood and in duplicate or triplicate using Aviva glucometers.
Body mass was measured daily approximately between 06:00-07:30 AM from day 32 through 38 of the predosing phase and throughout the 28 days of the dosing phase. During the dosing phase mice were treated twice daily with either a s.c. injection of PBS-vehicle or test article.
To determine whole body fat mass Quantitative Nuclear Magnetic Resonance (QNMR) measurements were performed on predosing day 37 and on day 26 of the dosing phase. During the dosing phase mice were treated twice daily with either a s.c. injection of PBS-vehicle or test article.
On day 28 blood was collected prior to any other inlife activities for determination of plasma insulin concentrations. Then the morning dose was administered and necropsy was performed 4 hours post-dose. For this purpose animals were anesthetized with isoflurane and blood was collected by orbital bleeding.
On day 28 and 4 hours after the morning dose, blood was collected from mice under isoflurane anesthesia as described above. Then mice were killed and livers were collected and weighed.
Data are depicted as means±SEM. […] A One-Way ANOVA and Tukey Test were used for pairwise multiple comparisons of all groups (n=8/group, deviations from group size are indicated). […]

[2] = Dynamic light scattering (DLS), hydrodynamic radius as surrogate for interaction parameter kD; type: physicochemical
In short: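 Rh and diffusion constant measured in triplicate at 1 and 5 mg/ml peptide in 25 mM acetate pH4.5 with methionine, m-cresol and glycerol, at 25°C, 830 nm, 158°. Rh5<Rh1 or D5>D1 taken as kD>0, indicating repulsive interactions.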

Structure (SMILES)	Body mass compared to the DIO-Vehicle group [1]	Whole body fat mass compared to the DIO-Vehicle group [1]	Plasma insulin concentrations compared to DIO vehicle [1]	Plasma total cholesterol concentrations compared to DIO vehicle [1]	Liver mass on day 28 compared to DIO animals treated with vehicle [1]	Plasma alanine aminotransferase concentration on day 28 compared to DIO vehicle [1]	24 hour blood glucose profile following first treatment [1]	Body mass change [1]	Whole body fat mass change [1]	Terminal liver mass (g) [1]	Terminal plasma alanine aminotransferase (U/L) [1]	Terminal plasma insulin (U/L) [1]	Terminal plasma total cholesterol (mmol/L) [1]	Delta Rh [nm] = Rh5 − Rh1 ([2]; DLS buffer system A pH 4.5)	Rh1 [nm] c= 1 mg/ml ([2]; hydrodynamic radius, 1 mg/ml, DLS buffer system A pH 4.5, DLS method C, 25° C.)	Rh5 [nm] c = 5 mg/ml ([2]; hydrodynamic radius, 5 mg/ml, DLS buffer system A pH 4.5, DLS method C, 25° C.)
CCCCCCCCCCCCCCCC(=O)N[C@@H](CCC(=O)N[C@@H](CCC(=O)NCCCC[C@H](NC(=O)[C@H](CC(C)C)NC(=O)[C@H](CCCCN)NC(=O)[C@H](CO)NC(=O)[C@H](CC(C)C)NC(=O)[C@H](CC(=O)O)NC(=O)[C@H](CO)NC(=O)[C@@H](NC(=O)[C@H](Cc1ccccc1)NC(=O)[C@@H](NC(=O)CNC(=O)[C@H](CCC(N)=O)NC(=O)C(C)(C)NC(=O)[C@@H](N)Cc1c[nH]cn1)[C@@H](C)O)[C@@H](C)O)C(=O)N[C@@H](CCC(=O)O)C(=O)N[C@@H](CCC(=O)O)C(=O)N[C@@H](CCC(N)=O)C(=O)N[C@@H](CCCNC(=N)N)C(=O)N[C@@H](CCC(N)=O)C(=O)NC(C)(C)C(=O)N[C@@H](CCC(=O)O)C(=O)N[C@@H](Cc1ccccc1)C(=O)N[C@H](C(=O)N[C@@H](CCC(=O)O)C(=O)N[C@@H](Cc1c[nH]c2ccccc12)C(=O)N[C@@H](CC(C)C)C(=O)N[C@@H](CCCCN)C(=O)N[C@@H](C)C(=O)NCC(=O)NCC(=O)N[C@@H](Cc1c[nH]cn1)C(=O)N1CCC[C@H]1C(=O)N[C@@H](CO)C(=O)NC(C)(C)C(=O)N[C@@H](CCCCN)C(=O)N1CCC[C@H]1C(=O)N1CCC[C@H]1C(=O)N1CCC[C@H]1C(=O)N[C@@H](CCCCN)C(N)=O)[C@@H](C)CC)C(=O)O)C(=O)O [SEQ ID NO: 8, H-Aib-Q-G-T-F-T-S-D-L-S-K-L-K[gGlu-gGlu-Palm]-E-E-Q-R-Q-Aib-E-F-I-E-W-L-K-A-G-G-H-P-S-Aib-K-P-P-P-K-NH2]	statistically significant decrease in body mass	statistically significantly reduction in whole body fat mass	statistically significant reduction in plasma insulin concentrations	statistically significant reduction in plasma total cholesterol concentrations	statistically significantly lower liver mass	statistically significantly lower plasma alanine aminotransferase concentration	decrease in blood glucose concentrations below concentrations observed in DIO control mice	-8.23 ± 0.62 g	-6.65 ± 0.38 g	+1.08 ± 0.03 g	+68.88 ± 15.05 U/L	+39.70 ± 4.25 U/L	+4.36 ± 0.08 mmol/L	–	–	–
CCCCCCCCCCCCCCCC(=O)N[C@@H](CCC(=O)N[C@@H](CCC(=O)NCCCC[C@H](NC(=O)[C@H](CC(C)C)NC(=O)[C@H](CCCCN)NC(=O)[C@H](CO)NC(=O)[C@H](CC(C)C)NC(=O)[C@H](CC(=O)O)NC(=O)[C@H](CO)NC(=O)[C@@H](NC(=O)[C@H](Cc1ccccc1)NC(=O)[C@@H](NC(=O)CNC(=O)[C@H](CCC(N)=O)NC(=O)C(C)(C)NC(=O)[C@@H](N)Cc1c[nH]cn1)[C@@H](C)O)[C@@H](C)O)C(=O)N[C@@H](CCC(=O)O)C(=O)N[C@@H](CCC(=O)O)C(=O)N[C@@H](CCC(N)=O)C(=O)N[C@@H](CCCNC(=N)N)C(=O)N[C@@H](CCC(N)=O)C(=O)NC(C)(C)C(=O)N[C@@H](CCC(=O)O)C(=O)N[C@@H](Cc1ccccc1)C(=O)N[C@H](C(=O)N[C@@H](CCC(=O)O)C(=O)N[C@@H](Cc1c[nH]c2ccccc12)C(=O)N[C@@H](CC(C)C)C(=O)N[C@@H](CCCCN)C(=O)N[C@@H](C)C(=O)NCC(=O)NCC(=O)N1CCC[C@H]1C(=O)N1CCC[C@H]1C(=O)N[C@@H](CO)C(=O)NC(C)(C)C(=O)N[C@@H](CCCCN)C(=O)N1CCC[C@H]1C(=O)N1CCC[C@H]1C(=O)N1CCC[C@H]1C(=O)N[C@@H](CCCCN)C(N)=O)[C@@H](C)CC)C(=O)O)C(=O)O [SEQ ID NO: 9, H-Aib-Q-G-T-F-T-S-D-L-S-K-L-K[gGlu-gGlu-Palm]-E-E-Q-R-Q-Aib-E-F-I-E-W-L-K-A-G-G-P-P-S-Aib-K-P-P-P-K-NH2]	statistically significant decrease in body mass	statistically significantly reduction in whole body fat mass	statistically significant reduction in plasma insulin concentrations	statistically significant reduction in plasma total cholesterol concentrations	statistically significantly lower liver mass	statistically significantly lower plasma alanine aminotransferase concentration	decrease in blood glucose concentrations below concentrations observed in DIO control mice	-10.03 ± 2.33 g	-5.29 ± 2.32 g	+1.11 ± 0.06 g	+57.13 ± 7.33 U/L	+38.95 ± 7.30 U/L	+3.97 ± 0.12 mmol/L	–	–	–
CCCCCCCCCCCCCCCC(=O)N[C@@H](CCC(=O)N[C@@H](CCC(=O)NCCCC[C@H](NC(=O)[C@H](CC(C)C)NC(=O)[C@H](CCCCN)NC(=O)[C@H](CO)NC(=O)[C@H](CC(C)C)NC(=O)[C@H](CC(=O)O)NC(=O)[C@H](CO)NC(=O)[C@@H](NC(=O)[C@H](Cc1ccccc1)NC(=O)[C@@H](NC(=O)CNC(=O)[C@H](CCC(N)=O)NC(=O)C(C)(C)NC(=O)[C@@H](N)Cc1c[nH]cn1)[C@@H](C)O)[C@@H](C)O)C(=O)N[C@@H](CCC(=O)O)C(=O)N[C@@H](CCCCN)C(=O)N[C@@H](CCC(N)=O)C(=O)N[C@@H](CCCNC(=N)N)C(=O)N[C@@H](CCC(N)=O)C(=O)NC(C)(C)C(=O)N[C@@H](CCC(=O)O)C(=O)N[C@@H](Cc1ccccc1)C(=O)N[C@H](C(=O)N[C@@H](CCC(=O)O)C(=O)N[C@@H](Cc1c[nH]c2ccccc12)C(=O)N[C@@H](CC(C)C)C(=O)N[C@@H](CCCCN)C(=O)N[C@@H](C)C(=O)N[C@H](C)C(=O)NCC(=O)N[C@@H](Cc1c[nH]cn1)C(=O)N1CCC[C@H]1C(=O)N[C@@H](CO)C(=O)NC(C)(C)C(=O)N[C@@H](CCCCN)C(=O)N1CCC[C@H]1C(=O)N1CCC[C@H]1C(=O)N1CCC[C@H]1C(=O)N[C@@H](CCCCN)C(N)=O)[C@@H](C)CC)C(=O)O)C(=O)O [SEQ ID NO: 13, H-Aib-Q-G-T-F-T-S-D-L-S-K-L-K[gGlu-gGlu-Palm]-E-K-Q-R-Q-Aib-E-F-I-E-W-L-K-A-dAla-G-H-P-S-Aib-K-P-P-P-K-NH2] (H-H[Aib]QGTFTSDLSKLK([γGlu-γGlu-Palmitoyl])EKQRQ[Aib]EFIEWLKA[dA]GHPS[Aib]KPPPK-NH2)	–	–	–	–	–	–	–	–	–	–	–	–	–	−0.3 nm	2.8 nm	2.5 nm
